Laboratory results reported in US20080207532A1, “Use of Nordihydroguaiaretic Acid Derivatives in the Treatment of Drug Resistant Cancer, Viral and Microbial Infection” (Johns Hopkins University, priority 2004, published 2008).
pIC50: −log10 of the molar value.

Key:
[1] = tested on: NCI/ADR-RES multidrug resistant breast cancer xenografts; assay: combination therapy against NCI/ADR-RES xenografts in nude mice; details: two weeks
Protocol: Nude mice bearing NCI/ADR-RES multidrug resistant breast cancer xenografts were used as a model for combination therapy to further examine synergy between M4N and paclitaxel.
T-cell deficient female nude (nu/nu) mice, 5-6 weeks of age, were purchased from Charles River Laboratories (Wilmington, Mass.) and were housed in a pathogen-free room. All experiments involving the mice were carried out in accordance with the Johns Hopkins University Animal Care and Use Committee guideline. The mice were implanted subcutaneously in both flanks with 1×10^6 NCI/ADR-RES cells suspended in Hank's balanced salt solution (HBSS). […] For intraperitoneal (i.p.) administration, M4N, maltose-M3N and paclitaxel were dissolved in a recently developed reduced cremophor solution containing 20% (v) dehydrated ethanol, 20% (v) Cremophor EL, PEG 300, <11% (v) Tween 80 (22). Daily injections of 0.05 ml were performed for each drug and drug combination.
Tumors were measured in two perpendicular dimensions once every seven days, and the tumor volumes were calculated according to the following formula: […]
where a is the width of the tumor (smaller diameter) and b is the length (larger diameter) (23). The mean tumor volume and standard error were calculated for each treatment group. Relative mean tumor volumes, (V/V0), where V is the mean tumor volume at a particular time and V0 is the mean tumor volume at day 0 (23), were determined and used to assess tumor growth inhibition (T/C value) using the following equation:
T/C(%)=Relative Mean Tumor Volume of treated/Relative Mean Volume of control×100.
The NCI standard for the minimal level for antitumor activity (T/C≦42%) was adopted (25). At the termination of the experiment the tumors were excised and fixed in formaldehyde. Tissue samples were then sent to Paragon Bioservices for histology and immunohistochemistry using antibodies against human P-glycoprotein (Pgp).
Two dosage regimens of M4N and paclitaxel, both with a constant molar ratio of 20:1 (M4N:paclitaxel), were employed as determined by in vitro testing to be synergistic as shown in Table 1. The 8 and 16 μmol m^2 doses of pactitaxel were submaximal based on values from other studies (22) and the M4N doses of 160 and 320 μmol/m^2 were arrived at by decreasing the maximum tolerated dose used in our previous study with MCF-7 breast cancer xenografts (5). An additional NDGA derivative was also tested. Maltose-M3N was developed as a water soluble alternative to M4N, however for consistency it was dissolved in the same reduced cremophor solvent system as M4N and paclitaxel for this study.

MCF-7 = details: MCF-7; read-out: IC50 from previous studies; cited from earlier work
[2] = dogs and rabbits, subcutaneous, intravaginal and IV formulations; cited from earlier work
[3] = mouse, IP, IV and oral; cited from earlier work
MCF-7 cells = assay: MTT cell proliferation assay, MCF-7 cells in culture; type: cell-based, human; details: 72 hours
Protocol: (§1) MCF-7 cells (a human mammary carcinoma cell line, obtainable from the ATCC P.O. Box 1549, Manassas, Va. 20108) were seeded into 24-well plates at 1.5×10^4 cells/well in 500 μl of Dulbecco's modified Eagle's medium (DMEM) containing 10% fetal bovine serum (FBS) and the antibiotics penicillin and streptomycin. Varying concentrations of M4N were added the next day. After incubation for an additional 3 days, cell proliferation was assessed by the MTT assay. […] The mice were assigned to a treatment group that received M4N dissolved in a 6% Cremaphor EL, 6% ethanol and 88% saline, and to a control group that received the vehicle only. […] Mice received a single daily 100 μL intraperitoneal (i.p.) injection containing 2 mg of M4N for 3 weeks. The control mice received an equal volume of the vehicle. […] The results from the individual mice were combined and the average tumor volume was determined. Statistical significance of the mean differences in tumor volume was assessed by Student's t-test.

MDR1 mRNA and Pgp = assay: Dox induction of MDR1 gene expression in MCF-7 cells; type: cell-based, human; details: MCF-7, 0.05 μM Dox with 5.0 μM M4N, two days
Protocol: Total RNA was isolated using the Trizol Reagent (Invitrogen, Carlsbad, Calif.). RT-PCR was carried out with the Superscript II One-Step RT-PCR system with Platinum Taq DNA Polymerase (Invitrogen) according to the manufacturer's protocol using oligonucleotide primers specific for MDR1: […]
Cultured cells were incubated in a solution of 10 mM EDTA and 10 mM EGTA in PBS and then harvested by scraping with a Teflon® cell scraper. The cells were pelleted and lysed in modified RIPA buffer [50 mM Tris-HCl (pH 7.4), 1% NP-40, 0.25% Na-deoxycholate, 150 mM NaCl, 1 mM EDTA (pH 8.0)] containing Protease Inhibitor Cocktail (Sigma Chemical Co.). The lysate was cleared by centrifligation and protein concentrations were determined with the Bio-Rad Protein Assay (Bio-Rad Laboratories, Hercules, Calif.). Protein samples were separated by SDS-PAGE and electroblofted to a Hybond enhanced chemiluminescence (ECL) nitrocellulose membrane (Amersham) with a semidry blotting apparatus and detected as described in the instruction manual of the ECL Western Blotting System (Amersham). The antibodies used were primary rabbit polyclonal antibodies against Pgp and cyclin B and a horseradish […] conjugated secondary antibody (Santa Cruz Biotechnology). Relative band intensities were measured with ImageJ software. […]

MCF-7 xenografts = MCF-7 xenografts in nude mice, M4N i.p. or oral; type: in vivo; details: 21 days systemic treatment, IP injection daily or oral feeding in food balls
Protocol: as §1

NCI/ADR-RES cells = assay: cell proliferation, NCI/ADR-RES cells in culture; type: cell-based, human; details: 72 hours
[4] = higher regimen: M4N or Mal-M3N 320, Px 16 μmoles/m^2, i.p. daily
[5] = lower regimen: M4N 160, Px 8 μmoles/m^2, i.p. daily

## COc1ccc(C[C@@H](C)[C@@H](C)Cc2ccc(OC)c(OC)c2)cc1OC [M4N, tetra-o-methyl nordihydroguaiaretic acid]
[1]; [4]
  Deaths: 0/7
  Relative Mean Tumor Volume: 1.33
  T/C %: 50.8%
[1]; [5]
  Deaths: 0/7
  Mean Body Weight Change: +0.2 g/mouse
  Relative Mean Tumor Volume: 1.70
  T/C %: 64.9%
MCF-7
  pIC50: ~5.15
[2]
  amount of drug in the blood: barely detectable
[3]
  level of drug in the blood: extremely low and only presents transiently
MCF-7 cells
  M4N required to achieve a total cell arrest: 20 µM
MDR1 mRNA and Pgp
  induction of MDR1 expression by Dox: abolished
MCF-7 xenografts
  tumor sizes of xenografts: greatly reduced the tumor sizes
NCI/ADR-RES cells
  M4N required to achieve a total cell arrest: 40 µM
